What all share (type): functional
Test [1] is described as follows: Counterscreen for antagonists of the orexin 1 receptor (OX1R; HCRTR1): Fluorescence-based cell-based high throughput dose response assay to identify antagonists of the parental CHO cell line. [Related pubchem assays (depositor defined):AID434989, AID435008, AID463079, AID485270, AID492963, AID492964, AID492965, AID493232, AID504699, AID504701].
In test [2] the target is T1, Orexin/Hypocretin receptor type 1 (Homo sapiens, UniProt O43613).
T1 sequence (O43613 whole entry): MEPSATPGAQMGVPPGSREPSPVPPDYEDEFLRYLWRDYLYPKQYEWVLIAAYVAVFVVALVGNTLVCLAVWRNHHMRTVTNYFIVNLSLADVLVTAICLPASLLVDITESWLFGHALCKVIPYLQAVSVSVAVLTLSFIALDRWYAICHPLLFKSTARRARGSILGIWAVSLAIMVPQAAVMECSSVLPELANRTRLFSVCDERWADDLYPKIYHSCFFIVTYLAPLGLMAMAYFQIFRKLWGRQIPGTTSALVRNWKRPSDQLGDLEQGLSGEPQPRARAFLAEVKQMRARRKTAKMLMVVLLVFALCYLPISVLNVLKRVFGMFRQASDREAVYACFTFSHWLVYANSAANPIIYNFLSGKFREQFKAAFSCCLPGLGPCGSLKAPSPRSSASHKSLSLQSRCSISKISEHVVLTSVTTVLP
As to the kind of experiment: Fluorescence-based cell-based high throughput dose response assay for antagonists of the orexin 1 receptor (OX1R; HCRTR1). [Related pubchem assays (depositor defined):AID434989, AID435008, AID463079, AID485270, AID492963, AID492964, AID492965, AID493232, AID504717, AID504718].

The target in another test is T2, Orexin receptor type 2 (Homo sapiens, UniProt O43614).
T2 sequence (O43614 whole entry): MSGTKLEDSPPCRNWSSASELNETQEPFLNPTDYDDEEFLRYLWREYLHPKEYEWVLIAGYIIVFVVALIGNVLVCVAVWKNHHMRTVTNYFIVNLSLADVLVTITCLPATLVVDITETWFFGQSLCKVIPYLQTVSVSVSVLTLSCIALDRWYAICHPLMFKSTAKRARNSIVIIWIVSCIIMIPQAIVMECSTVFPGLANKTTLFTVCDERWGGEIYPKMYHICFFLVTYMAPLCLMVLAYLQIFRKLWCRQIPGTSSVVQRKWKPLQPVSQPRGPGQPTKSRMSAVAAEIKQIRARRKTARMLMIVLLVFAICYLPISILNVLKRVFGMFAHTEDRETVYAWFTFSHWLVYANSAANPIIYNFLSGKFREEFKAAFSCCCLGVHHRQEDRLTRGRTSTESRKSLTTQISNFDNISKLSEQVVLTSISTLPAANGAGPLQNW
As to the kind of experiment: Counterscreen assay for antagonists of the orexin 1 receptor (OX1R; HCRTR1): Fluorescence-based cell-based dose response assay for antagonists of the orexin 2 receptor (OX2R; HCRTR2), run by assay provider. A general note: A counterscreen serves to expose hits that act by an unwanted route or on another target.

Test [3] has as its target Dual specificity tyrosine-phosphorylation-regulated kinase 1A (Homo sapiens, UniProt Q13627).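 Further: measured against DYRK1A as one member of a broad kinome profiling panel.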
Test [4] concerns the target Vascular endothelial growth factor receptor 2 (Homo sapiens, UniProt P35968).
Test [5] deals with Dual specificity protein kinase CLK4 (Homo sapiens, UniProt Q9HAZ1).
Sequence of Dual specificity protein kinase CLK4 (Q9HAZ1 whole entry): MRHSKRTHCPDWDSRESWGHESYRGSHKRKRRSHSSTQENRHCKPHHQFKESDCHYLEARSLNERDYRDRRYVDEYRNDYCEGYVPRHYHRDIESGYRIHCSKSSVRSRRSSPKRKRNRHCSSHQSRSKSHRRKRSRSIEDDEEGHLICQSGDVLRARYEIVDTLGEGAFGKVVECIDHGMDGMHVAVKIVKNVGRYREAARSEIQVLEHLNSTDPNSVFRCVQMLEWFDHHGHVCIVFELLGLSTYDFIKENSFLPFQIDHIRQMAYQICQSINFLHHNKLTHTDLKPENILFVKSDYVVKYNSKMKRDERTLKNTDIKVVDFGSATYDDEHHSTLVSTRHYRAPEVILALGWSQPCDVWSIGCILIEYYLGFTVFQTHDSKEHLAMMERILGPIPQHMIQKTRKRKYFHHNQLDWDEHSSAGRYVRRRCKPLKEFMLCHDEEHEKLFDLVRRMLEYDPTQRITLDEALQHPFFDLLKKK
In test [6] the target is Serine/threonine-protein kinase pim-1 (Homo sapiens, UniProt P11309).
Sequence of Serine/threonine-protein kinase pim-1 (P11309 whole entry): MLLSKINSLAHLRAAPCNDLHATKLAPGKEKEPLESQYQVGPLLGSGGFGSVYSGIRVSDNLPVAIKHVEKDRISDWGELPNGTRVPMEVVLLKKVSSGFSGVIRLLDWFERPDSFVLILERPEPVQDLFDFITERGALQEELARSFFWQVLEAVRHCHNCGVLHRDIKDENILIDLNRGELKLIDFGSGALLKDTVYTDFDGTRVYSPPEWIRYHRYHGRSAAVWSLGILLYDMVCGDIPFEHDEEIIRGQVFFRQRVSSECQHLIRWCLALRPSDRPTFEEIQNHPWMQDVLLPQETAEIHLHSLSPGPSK
Test [7] concerns the target Dual specificity mitogen-activated protein kinase kinase 2 (Homo sapiens, UniProt P36507). As to the kind of experiment: Navigating the Kinome. Panel member name: MAP2K2.
The target of test [8] is G protein-coupled receptor kinase 5 (Homo sapiens, UniProt P34947). As to the kind of experiment: Navigating the Kinome. Panel member name: GPRK5.
Test [9] has as its target Calcium/calmodulin-dependent protein kinase type II subunit alpha (Homo sapiens, UniProt Q9UQM7). Kind of test: Navigating the Kinome. Panel member name: CAMK2A.
In test [10] the target is Glycogen synthase kinase-3 alpha (Homo sapiens, UniProt P49840).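 Further: GSK3A result taken from a broad kinome-wide kinase panel.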
Sequence of Glycogen synthase kinase-3 alpha (P49840 whole entry): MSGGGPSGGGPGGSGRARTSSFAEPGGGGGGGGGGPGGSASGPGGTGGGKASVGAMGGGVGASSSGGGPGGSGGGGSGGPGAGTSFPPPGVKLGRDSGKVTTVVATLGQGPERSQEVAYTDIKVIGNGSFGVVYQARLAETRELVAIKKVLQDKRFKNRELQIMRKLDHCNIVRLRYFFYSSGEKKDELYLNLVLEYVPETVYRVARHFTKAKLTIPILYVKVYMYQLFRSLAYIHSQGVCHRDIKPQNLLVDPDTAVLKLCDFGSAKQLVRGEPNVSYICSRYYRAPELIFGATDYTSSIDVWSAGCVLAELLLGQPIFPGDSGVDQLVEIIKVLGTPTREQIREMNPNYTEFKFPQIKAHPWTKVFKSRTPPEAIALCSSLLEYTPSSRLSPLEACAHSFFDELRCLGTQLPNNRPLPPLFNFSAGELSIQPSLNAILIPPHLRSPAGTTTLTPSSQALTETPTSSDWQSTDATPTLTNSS
Test [11] has as its target Mitogen-activated protein kinase 14 (Homo sapiens, UniProt Q16539).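 Further: part of a kinome-wide panel, MAPK14 entry.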
Another test concerns the target LIM domain kinase 1 (Homo sapiens, UniProt P53667). Kind of test: Navigating the Kinome. Panel member name: LIMK1.
Test [12] has as its target BDNF/NT-3 growth factors receptor (Homo sapiens, UniProt Q16620).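 Further: NTRK2 measured as one member of a broad kinome-wide kinase profiling panel.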
The target of another test is Aurora kinase B (Homo sapiens, UniProt Q96GD4).
The target of test [13] is Receptor-type tyrosine-protein kinase FLT3 (Homo sapiens, UniProt P36888).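 Further: FLT3 was tested as one member of a kinome-wide kinase panel.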
Test [14] concerns the target Protein kinase C theta type (Homo sapiens, UniProt Q04759). Kind of test: Navigating the Kinome. Panel member name: PRKCQ.
For test [15], the target named is Casein kinase I isoform alpha (Homo sapiens, UniProt P48729).
The target of test [16] is Serine/threonine-protein kinase D3 (Homo sapiens, UniProt O94806).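 Further: determined within a kinase panel screen, with PRKCN as the panel member.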
In test [17] the target is Mitogen-activated protein kinase 8 (Homo sapiens, UniProt P45983).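 Further: value comes from one member of a kinome-wide kinase profiling panel.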
For test [18], the target named is Leucine-rich repeat serine/threonine-protein kinase 2 (Homo sapiens, UniProt Q5S007).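 Further: value from a broad kinome-wide panel profiling study in which LRRK2 was one of the kinases tested.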
In test [19] the target is ALK tyrosine kinase receptor (Homo sapiens, UniProt Q9UM73).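 Further: ALK tested as one member of a kinase panel screen.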
Another test addresses Activin receptor type-1 (Homo sapiens, UniProt Q04771). Kind of test: Navigating the Kinome. Panel member name: ACVR1.
The target of test [20] is Dual specificity protein kinase CLK2 (Homo sapiens, UniProt P49760).
In test [21] the target is Serine/threonine-protein kinase TBK1 (Homo sapiens, UniProt Q9UHD2). Kind of test: Navigating the Kinome. Panel member name: TBK1.
Test [22] addresses Cyclin-dependent kinase 8 (Homo sapiens, UniProt P49336). Kind of test: Navigating the Kinome. Panel member name: CDK8.
In test [23] the target is Ribosomal protein S6 kinase alpha-3 (Homo sapiens, UniProt P51812).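 Further: measured within a kinome-wide profiling panel.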
Sequence of Ribosomal protein S6 kinase alpha-3 (P51812 whole entry): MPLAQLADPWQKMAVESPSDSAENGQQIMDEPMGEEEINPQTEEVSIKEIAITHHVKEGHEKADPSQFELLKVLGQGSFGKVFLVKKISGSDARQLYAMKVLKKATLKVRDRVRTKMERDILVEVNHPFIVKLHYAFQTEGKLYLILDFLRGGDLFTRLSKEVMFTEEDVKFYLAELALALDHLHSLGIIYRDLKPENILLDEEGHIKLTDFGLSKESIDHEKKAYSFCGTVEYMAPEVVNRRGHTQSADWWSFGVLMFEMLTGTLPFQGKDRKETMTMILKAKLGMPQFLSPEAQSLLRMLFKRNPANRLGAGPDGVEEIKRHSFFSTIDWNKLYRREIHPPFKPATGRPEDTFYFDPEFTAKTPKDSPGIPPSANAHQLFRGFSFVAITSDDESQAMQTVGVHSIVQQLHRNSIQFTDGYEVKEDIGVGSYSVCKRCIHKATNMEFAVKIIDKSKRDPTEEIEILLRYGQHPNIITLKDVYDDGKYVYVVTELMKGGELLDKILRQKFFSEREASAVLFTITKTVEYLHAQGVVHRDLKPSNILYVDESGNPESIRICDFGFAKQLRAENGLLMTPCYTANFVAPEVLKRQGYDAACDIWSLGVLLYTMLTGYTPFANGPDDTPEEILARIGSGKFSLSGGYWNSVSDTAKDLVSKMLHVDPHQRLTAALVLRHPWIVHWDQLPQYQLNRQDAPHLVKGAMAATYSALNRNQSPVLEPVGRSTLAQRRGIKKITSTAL
In test [24] the target is Tyrosine-protein kinase JAK3 (Homo sapiens, UniProt P52333).
Test [25] has as its target Mitogen-activated protein kinase 9 (Homo sapiens, UniProt P45984).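 Further: value from a kinome panel profiling assay, MAPK9 panel entry.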
The target of test [26] is Cyclin-dependent kinase 7 (Homo sapiens, UniProt P50613).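 Further: value comes from a kinome-wide kinase profiling panel in which CDK7 is one member.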
Sequence of Cyclin-dependent kinase 7 (P50613 whole entry): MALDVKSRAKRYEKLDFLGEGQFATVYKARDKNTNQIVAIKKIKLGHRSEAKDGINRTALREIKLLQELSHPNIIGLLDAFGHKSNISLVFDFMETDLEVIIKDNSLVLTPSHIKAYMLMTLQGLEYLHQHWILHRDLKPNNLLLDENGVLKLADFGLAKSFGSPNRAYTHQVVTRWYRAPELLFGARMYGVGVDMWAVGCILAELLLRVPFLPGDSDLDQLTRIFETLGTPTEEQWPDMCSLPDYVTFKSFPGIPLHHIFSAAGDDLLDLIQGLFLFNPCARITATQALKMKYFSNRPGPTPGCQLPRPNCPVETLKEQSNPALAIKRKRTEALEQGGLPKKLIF

Calls of active or inactive are those of the source.

Sequence of Mitogen-activated protein kinase 9 (P45984 whole entry): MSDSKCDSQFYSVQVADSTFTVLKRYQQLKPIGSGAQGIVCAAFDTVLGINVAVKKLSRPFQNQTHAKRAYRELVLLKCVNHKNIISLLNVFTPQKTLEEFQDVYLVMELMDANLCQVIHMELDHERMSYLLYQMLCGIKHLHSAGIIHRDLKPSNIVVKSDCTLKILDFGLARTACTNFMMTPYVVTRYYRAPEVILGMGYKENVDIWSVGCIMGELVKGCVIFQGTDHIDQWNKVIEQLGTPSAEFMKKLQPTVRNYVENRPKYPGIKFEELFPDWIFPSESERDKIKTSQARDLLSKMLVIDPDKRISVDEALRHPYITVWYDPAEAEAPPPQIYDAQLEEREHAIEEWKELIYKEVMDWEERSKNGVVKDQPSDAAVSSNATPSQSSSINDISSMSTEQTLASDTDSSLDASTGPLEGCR
Sequence of Cyclin-dependent kinase 8 (P49336 whole entry): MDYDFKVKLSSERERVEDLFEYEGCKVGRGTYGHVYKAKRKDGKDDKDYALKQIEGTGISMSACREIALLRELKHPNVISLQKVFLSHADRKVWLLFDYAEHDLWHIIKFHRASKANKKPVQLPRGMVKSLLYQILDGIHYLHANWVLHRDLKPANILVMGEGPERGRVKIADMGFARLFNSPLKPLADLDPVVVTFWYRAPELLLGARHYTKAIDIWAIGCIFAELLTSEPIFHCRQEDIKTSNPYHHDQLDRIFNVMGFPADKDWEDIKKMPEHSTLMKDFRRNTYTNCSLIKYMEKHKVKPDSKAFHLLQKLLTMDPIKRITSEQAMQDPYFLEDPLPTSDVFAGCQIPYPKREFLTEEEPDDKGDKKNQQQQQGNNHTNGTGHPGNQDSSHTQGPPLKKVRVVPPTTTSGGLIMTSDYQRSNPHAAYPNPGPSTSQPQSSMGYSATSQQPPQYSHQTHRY
Sequence of BDNF/NT-3 growth factors receptor (Q16620 whole entry): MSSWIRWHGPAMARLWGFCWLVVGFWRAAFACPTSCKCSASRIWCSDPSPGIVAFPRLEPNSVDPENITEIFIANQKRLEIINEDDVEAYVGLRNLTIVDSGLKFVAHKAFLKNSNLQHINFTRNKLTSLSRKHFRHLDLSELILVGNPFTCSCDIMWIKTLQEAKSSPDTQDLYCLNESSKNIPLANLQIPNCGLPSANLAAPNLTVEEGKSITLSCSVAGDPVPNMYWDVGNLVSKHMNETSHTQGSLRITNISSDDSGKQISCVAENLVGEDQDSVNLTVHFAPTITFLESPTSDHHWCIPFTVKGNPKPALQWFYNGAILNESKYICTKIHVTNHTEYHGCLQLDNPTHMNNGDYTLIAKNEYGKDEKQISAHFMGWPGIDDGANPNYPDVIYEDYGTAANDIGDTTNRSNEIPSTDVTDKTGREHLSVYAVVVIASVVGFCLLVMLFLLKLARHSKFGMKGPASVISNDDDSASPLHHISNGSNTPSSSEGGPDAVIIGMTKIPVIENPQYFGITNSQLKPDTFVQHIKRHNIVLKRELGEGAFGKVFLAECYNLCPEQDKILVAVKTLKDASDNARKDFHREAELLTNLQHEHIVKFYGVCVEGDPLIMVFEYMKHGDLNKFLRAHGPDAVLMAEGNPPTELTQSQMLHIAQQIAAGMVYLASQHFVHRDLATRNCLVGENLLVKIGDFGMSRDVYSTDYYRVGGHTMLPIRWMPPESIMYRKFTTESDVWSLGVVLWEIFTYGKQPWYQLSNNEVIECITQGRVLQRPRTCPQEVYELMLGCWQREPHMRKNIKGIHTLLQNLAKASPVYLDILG
Sequence of Activin receptor type-1 (Q04771 whole entry): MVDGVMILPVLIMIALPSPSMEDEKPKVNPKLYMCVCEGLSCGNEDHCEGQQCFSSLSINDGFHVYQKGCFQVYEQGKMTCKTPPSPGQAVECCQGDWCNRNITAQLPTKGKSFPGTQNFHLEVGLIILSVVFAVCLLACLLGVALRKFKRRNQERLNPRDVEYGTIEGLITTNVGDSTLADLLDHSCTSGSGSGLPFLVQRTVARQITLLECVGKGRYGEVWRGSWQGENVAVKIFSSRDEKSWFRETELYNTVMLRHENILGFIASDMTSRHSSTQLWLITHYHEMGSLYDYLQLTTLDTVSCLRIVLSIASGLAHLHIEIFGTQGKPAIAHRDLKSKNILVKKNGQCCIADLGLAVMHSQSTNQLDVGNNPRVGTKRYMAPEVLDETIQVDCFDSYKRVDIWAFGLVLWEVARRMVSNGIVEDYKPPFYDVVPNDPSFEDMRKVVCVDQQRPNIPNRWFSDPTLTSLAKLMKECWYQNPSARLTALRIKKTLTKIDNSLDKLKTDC
Sequence of Mitogen-activated protein kinase 14 (Q16539 whole entry, the tested form may be a part): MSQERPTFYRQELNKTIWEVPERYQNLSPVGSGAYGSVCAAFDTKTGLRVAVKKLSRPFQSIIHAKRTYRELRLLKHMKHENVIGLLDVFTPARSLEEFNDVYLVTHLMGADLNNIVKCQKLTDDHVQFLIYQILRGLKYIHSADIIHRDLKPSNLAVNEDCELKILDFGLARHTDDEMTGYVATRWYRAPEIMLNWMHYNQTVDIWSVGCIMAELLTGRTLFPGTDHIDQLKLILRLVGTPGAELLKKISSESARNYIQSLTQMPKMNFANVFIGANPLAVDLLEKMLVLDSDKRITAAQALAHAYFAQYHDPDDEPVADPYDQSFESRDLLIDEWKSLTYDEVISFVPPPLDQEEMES

In general, IC50 refers to the concentration that inhibits the measured activity by half. Turning to `Cc1ccnc2ccc(-c3nc4ccccc4o3)cc12`, the IC50 was > 49.8 µM (inactive) in test [1], 4.26 µM (active) in [2] and > 88.8 µM (inactive) on Orexin receptor type 2.
As a reminder, the Ki is the dissociation constant of the complex between target and ligand, obtained from inhibition or displacement. Take `O=C(NCCc1cccs1)N1CC=C(c2c[nH]c3ncccc23)CC1`: the Ki in [3] was 0.126 µM (active); in test [4], 2 µM (active); in test [5], 0.0158 µM (active); in [6] it was 3.98 µM (active); in [7] it was 3.16 µM (active); in test [8], > 3.98 µM (inactive). Moreover, the inhibition constant (Ki) was 3.98 µM (active) in test [9]; > 3.98 µM (inactive) in [10]; > 3.98 µM (inactive) in test [11]; > 3.16 µM (inactive) on LIM domain kinase 1; > 3.98 µM (inactive) in [12]; > 3.98 µM (inactive) on Aurora kinase B. In addition, the Ki in test [13] is > 3.16 µM (inactive); in [14] it was > 2.51 µM (inactive); in test [15], 1.58 µM (active); in [16], > 3.98 µM (inactive); in test [17], 3.98 µM (active); in [18], 0.631 µM (active). The Ki in test [19] is > 6.31 µM (inactive); on Activin receptor type-1 it was 1.26 µM (active); in test [20], 0.501 µM (active); in test [21] it was > 3.16 µM (inactive); in test [22], 0.0794 µM (active); in test [23] it was > 3.98 µM (inactive). Further, the Ki is > 5.01 µM (inactive) in test [24], > 3.98 µM (inactive) in [25] and 1 µM (active) in test [26].

For the origin of these results see ChEMBL document CHEMBL1201862, “PubChem BioAssay data set” (2004).
